Measurements published in US20260265273A1, “SOLID FORM OF FUSED RING COMPOUND, AND PREPARATION METHOD THEREFOR AND USE THEREOF” (APPLIED PHARMACEUTICAL SCIENCE, INC., priority 2022, published 2026).
Values after ≈ are worked out from the molar mass of the structure shown.

What was measured:
[1] = Solubility Test II (saturated solubility by HPLC); type: physicochemical; conditions: for solubility at 24 h: 37 °C, thermodynamic from solid
Experimental: Chromatographic column: Waters XTERRA RP18, 4.6 mm×150 mm, 3.5 μm or an equivalent chromatographic column. […] The gradient elution conditions are shown in Table 3-2. pH 4.5 acetate buffer: 0.59806 g of sodium acetate trihydrate was added to a 200-mL measuring flask and dissolved in an appropriate amount of water; 1.6 mL of glacial acetic acid was added; and the mixture was diluted to volume to obtain the pH 4.5 acetate buffer. pH 6.8 phosphate buffer: 1.38501 g of potassium dihydrogen phosphate and 0.18086 g of sodium hydroxide were added to the same 200-mL measuring flask; and the mixture was dissolved in water and diluted to volume to obtain the pH 6.8 phosphate buffer. 10.0 mL of each medium was precisely measured, and the media were placed into different 25-mL measuring flasks; an appropriate amount of each test crystal form was added; and the flasks were sealed and oscillated in an oscillator at 37° C. for 24 h to obtain supersaturated solutions. pH 6.8 phosphate buffer sample solution: the supersaturated solution prepared using the pH 6.8 phosphate buffer medium was filtered to obtain the pH 6.8 phosphate buffer sample solution. Water sample solution: the supersaturated solution prepared using the water medium was filtered to obtain the water sample solution. pH 4.5 acetate buffer sample solution: the supersaturated solution prepared using the pH 4.5 acetate buffer medium was filtered, and 1.0 mL of the filtrate was precisely measured and placed into a 10-mL measuring flask; the filtrate was diluted to volume with the pH 4.5 acetate buffer medium, and 1.0 mL of the solution was then precisely measured and placed into the 10-mL measuring flask; and the solution was diluted to volume with methanol to obtain the pH 4.5 acetate buffer sample solution. (ii) Preparation of crystal form A sample solution: pH 6.8 phosphate buffer sample solution: the supersaturated solution prepared using the pH 6.8 phosphate buffer medium was filtered to obtain the pH 6.8 phosphate buffer sample solution. Water sample solution: the supersaturated solution prepared using the water medium was filtered to obtain the water sample solution. pH 4.5 acetate buffer sample solution: the supersaturated solution prepared using the pH 4.5 acetate buffer medium was filtered, and 1.0 mL of the filtrate was precisely measured and placed into a 10-mL measuring flask; the filtrate was diluted to volume with the pH 4.5 acetate buffer medium, and 1.0 mL of the solution was then precisely measured and placed into a 25-mL measuring flask; and the solution was diluted to volume with methanol to obtain the pH 4.5 acetate buffer sample solution. Each medium sample solution was taken, 10 μL of each test sample solution was precisely measured and injected into a liquid chromatograph according to the chromatography conditions described above, and the chromatogram was recorded. The saturated solution degree of each medium was calculated according to the formula below. In the formula: WR=sample weight of control solution, mg; PR=purity factor of control; • AS=peak area of main peak in test solution: DS=dilution factor of test solution; • AR=peak area of main peak in control solution; DR=dilution factor of control solution;

[2] = Pharmacokinetic experiment in SD rats; type: in vivo; conditions: oral intragastric 10 mg/kg
Experimental: Six SPF-grade SD rats were prepared and weighed before administration. The dose of administration was calculated based on the weight. […] These administration solutions were orally and intragastrically administered at 10 mg/kg. The rats were weighed before administration, and the dose of administration was calculated based on the weight. 3 rats were used for each crystal form. The administration solutions were orally and intragastrically administered, followed by collection of samples via the jugular vein or other suitable means at the following time points: 0.25 […], and 24 h. About 0.20 mL of each sample was collected, and the plasma was separated out by centrifugation within 2 h. The compound I was detected, and plasma drug concentration-time curves were plotted. The pharmacokinetic parameters were calculated by utilizing WinNonlin according to the plasma concentration data at different time points.

[3] = Solubility Test I (stepwise solvent addition); type: physicochemical; conditions: thermodynamic from solid, room temperature
Experimental: About 2 mg of the crystal form A sample prepared according to Example 2 was weighed out and added to an HPLC vial, and the corresponding solvent was added stepwise (50/50/200/700 μL in sequence), followed by oscillation until the solid was completely dissolved. If the sample was still not completely dissolved after 1 mL of the solvent was added, no more solvent was added. The solubility range was calculated based on the mass of the solid sample, the volume of the solvent added, and the observed dissolution results, and the results are summarized in Table 3-1.

[4] = Hygroscopicity test (DVS); type: physicochemical
Experimental: Dynamic vapor sorption (DVS) curves were acquired on a DVS Intrinsic in SMS (Surface Measurement Systems). The relative humidity at 25° C. was corrected with the deliquescence points of LiCl, Mg(NO3)2, and KCl.

[5] = Solid-state stability test (XRPD, HPLC purity); type: physicochemical
[6] = 25° C./60% RH/uncovered, 2 weeks
[7] = 25° C./60% RH/uncovered, 4 weeks
[8] = 25° C./60% RH/uncovered, 6 weeks
[9] = 40° C./75% RH/uncovered, 2 weeks
[10] = 40° C./75% RH/uncovered, 4 weeks
[11] = 40° C./75% RH/uncovered, 6 weeks

CCOc1cc(-c2ccc(N3CC4CC(C3)N4Cc3ccc(OC)nc3)nc2)c2c3cn[nH]c3nn2c1 (single isomer, unassigned) [Crystal form A]
Saturated solubility ([1]; pH 4.5 acetate buffer, 37° C., 24 h, listed as crystal form A): 14545.08 µg/mL
solubility at 24 h ([1]; pH 6.8 phosphate buffer, pH 6.8, aqueous buffer): 0.04 µg/mL (≈ 8.06e-05 mM)
solubility at 24 h ([1]; water): 0.61 µg/mL (≈ 0.00123 mM)
AUC(0-t) ([2]; SD, rat, plasma, po, 10 mg/kg, 1 mg/mL in 5% DMSO in normal saline, compound I in plasma, 0.25-24 h, read-out: AUC(0-t)): 19100 ng·h/mL
in vivo absorption ([2]; comparison of crystal forms): significantly superior to that of the crystal form B
solubility ([3]; organic solvent or mixture, solvent 1,4-Dioxane): 2000 to 6700 µg/mL (≈ 4.03 to 13.5 mM)
solubility ([3]; organic solvent or mixture, solvent 2-MeTHF): 2400 to 8000 µg/mL (≈ 4.83 to 16.1 mM)
solubility ([3]; organic solvent or mixture, solvent ACN): < 2200 µg/mL
solubility ([3]; organic solvent or mixture, solvent Acetone, undissolved sample completely dissolved at 50° C. ~1 h): < 1900 µg/mL
solubility ([3]; organic solvent or mixture, solvent Anisole, undissolved sample completely dissolved at 50° C. ~1 h): < 2200 µg/mL
solubility ([3]; organic solvent or mixture, solvent CHCl3): 20000 to 40000 µg/mL (≈ 40.3 to 80.6 mM)
solubility ([3]; organic solvent or mixture, solvent CPME, undissolved sample completely dissolved at 50° C. ~1 h): < 2000 µg/mL
solubility ([3]; organic solvent or mixture, solvent DCM): 7700 to 23000 µg/mL (≈ 15.5 to 46.3 mM)
solubility ([3]; organic solvent or mixture, solvent DMSO): 21000 to 42000 µg/mL (≈ 42.3 to 84.6 mM)
solubility ([3]; organic solvent or mixture, solvent EtOAc, undissolved sample completely dissolved at 50° C. ~1 h): < 2200 µg/mL
solubility ([3]; organic solvent or mixture, solvent EtOH, undissolved sample completely dissolved at 50° C. ~1 h): < 1900 µg/mL
solubility ([3]; organic solvent or mixture, solvent IPA, undissolved sample completely dissolved at 50° C. ~1 h): < 2000 µg/mL
solubility ([3]; organic solvent or mixture, solvent IPAC): < 2200 µg/mL
solubility ([3]; organic solvent or mixture, solvent MIBK): < 2200 µg/mL
solubility ([3]; organic solvent or mixture, solvent MTBE): < 2200 µg/mL
solubility ([3]; organic solvent or mixture, solvent MeOH, undissolved sample completely dissolved at 50° C. ~1 h): < 2100 µg/mL
solubility ([3]; organic solvent or mixture, solvent THE): 1900 to 6300 µg/mL (≈ 3.83 to 12.7 mM)
solubility ([3]; organic solvent or mixture, solvent Toluene): < 2000 µg/mL
solubility ([3]; organic solvent or mixture, solvent n-Heptane): < 2000 µg/mL
solubility ([3]; water, solvent H2O): < 2300 µg/mL
hygroscopicity evaluation ([4]; DVS at 25° C., 0% RH-95% RH, according to Chinese Pharmacopoeia 2015 Edition): slightly hygroscopic
hygroscopic weight gain ([4]; DVS, 25° C./80% RH, listed as crystal form A): about 1.1%
crystal form after the DVS test (XRPD) ([4]; after DVS test): not changed
Purity (area %) [5, 6]: 99.95 area %
Relative to initial purity (%) [5, 6]: 99.99%
Crystal form change ([5]; 25° C./60% RH/uncovered, 2 weeks, XRPD): No change
Purity (area %) [5, 7]: 99.94 area %
Relative to initial purity (%) [5, 7]: 99.98%
Crystal form change ([5]; 25° C./60% RH/uncovered, 4 weeks, XRPD): No change
Purity (area %) [5, 8]: 99.96 area %
Relative to initial purity (%) [5, 8]: 100.00%
Crystal form change ([5]; 25° C./60% RH/uncovered, 6 weeks, XRPD): No change
Purity (area %) [5, 9]: 99.96 area %
Relative to initial purity (%) [5, 9]: 100.00%
Crystal form change ([5]; 40° C./75% RH/uncovered, 2 weeks, XRPD): No change
Purity (area %) [5, 10]: 99.96 area %
Relative to initial purity (%) [5, 10]: 100.00%
Crystal form change ([5]; 40° C./75% RH/uncovered, 4 weeks, XRPD): No change
Purity (area %) [5, 11]: 99.95 area %
Relative to initial purity (%) [5, 11]: 99.99%
Crystal form change ([5]; 40° C./75% RH/uncovered, 6 weeks, XRPD): No change
Purity (area %) ([5]; 60° C./sealed, 24 h): 99.96 area %
Relative to initial purity (%) ([5]; 60° C./sealed, 24 h): 100.00%
Crystal form change ([5]; 60° C./sealed, 24 h, XRPD): No change
HPLC purity under the test conditions ([5]; all stability conditions (60° C. sealed 24 h; 25° C./60% RH and 40° C./75% RH uncovered 2, 4, 6 weeks)): not significantly reduced
crystal form under the test conditions ([5]; all stability conditions, XRPD): not changed
